These results are taken from patent US10519106B2, “Urea derivative and use therefor” (Toray Industries, Inc., priority 2015, dated 2019).

Each structure is given as a SMILES string. Counter-ions that a name gives are not always drawn.

The test has as its target T1, intracellular domain of DDR1 (Homo sapiens, UniProt Q08345).
T1 construct: the intracellular domain of DDR1 (in a final concentration of 5 ng/μL) (Carna Biosciences, Inc.); purchased Carna Biosciences, Inc
In words: Evaluation of DDR1 inhibition activity with HTRF KinEASE-TK kit. It counts as biochemical. The settings on record: intracellular domain of DDR1 5 ng/μL, ATP 25 mol/L (so in the source), TK Substrate-biotin 1000 nmol/L, room temperature, one hour. How it is done:
The DDR1 inhibition activity of the compounds of Examples 1 to 51 was evaluated with HTRF® KinEASE-TK kit (Cisbio Bioassays).
Each test substance was dissolved in dimethyl sulfoxide (hereinafter referred to as DMSO) and then used for the evaluation as described below. Moreover, each of test substances and reagents was diluted in the kinase buffer (Cisbio Bioassays) prepared by adding thereto MgCl2, MnCl2, DTT, and the Supplemental Enzyme buffer (Cisbio Bioassays) to concentrations of 5 mmol/L, 0.5 mmol/L, 0.25 mmol/L, and 50 nmol/L, respectively, and then used. Each test substance (in DMSO in a final concentration of 1%), the intracellular domain of DDR1 (in a final concentration of 5 ng/μL) (Carna Biosciences, Inc.), the phosphate donor ATP (in final concentration of 25 mol/L) (Sigma), and the substrate TK Substrate-biotin (in a final concentration of 1000 nmol/L) (Cisbio Bioassays) were added to a 384-well black plate (Corning) and allowed to react at room temperature for one hour. After completion of the reaction, the TK Antibody-Cryptate (Cisbio Bioassays) and the Streptavidin-XL665 (Cisbio Bioassays) were added thereto and allowed to react at room temperature for one hour. In addition, the plate was provided with a well to which a test substance was not added, and with a well to which the intracellular domain of DDR1 and a test substance were not added.
The fluorescence intensity in each well was measured using a multi-label counter (Envision, PerkinElmer; excitation wavelength: 320 nm, measurement wavelength: 665 nm and 620 nm) to calculate a Ratio (the fluorescence intensity at 665 nm/the fluorescence intensity at 620 nm). The inhibition rate (%) of a test substance at each concentration was calculated based on the formula below. Inhibition rate (%)=([the Ratio obtained from the well containing no test substance]−[the Ratio from a well containing a test substance])/([the Ratio obtained from the well containing no test substance]−[the Ratio obtained from the well containing no intracellular domain of DDR1 and no test substance])×100
The calculated inhibition rates were fitted to a sigmoidal dose-response curve by regression analysis using the Prism 5.04 (GraphPad Software, Inc.) to calculate the ICso0 value of the test substance.

T1 sequence (Q08345 444-876 isoform Q08345-2 limits assumed): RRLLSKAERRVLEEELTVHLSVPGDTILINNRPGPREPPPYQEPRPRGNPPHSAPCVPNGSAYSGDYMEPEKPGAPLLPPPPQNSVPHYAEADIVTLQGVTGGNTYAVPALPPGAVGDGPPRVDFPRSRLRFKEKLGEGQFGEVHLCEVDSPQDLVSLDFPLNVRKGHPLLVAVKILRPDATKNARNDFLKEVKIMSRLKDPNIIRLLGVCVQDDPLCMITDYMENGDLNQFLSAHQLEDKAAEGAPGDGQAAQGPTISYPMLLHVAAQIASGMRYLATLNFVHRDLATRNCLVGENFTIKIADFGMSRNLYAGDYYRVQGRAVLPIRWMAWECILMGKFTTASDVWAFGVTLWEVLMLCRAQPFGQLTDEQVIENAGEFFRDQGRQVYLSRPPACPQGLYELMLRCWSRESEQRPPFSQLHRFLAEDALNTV

In turn, `COc1ccc(S(F)(F)(F)(F)F)cc1NC(=O)NCc1ccccc1OCc1ccncc1` [Compound of Example 1] had an IC50 of 52.1 nM.

Take `COc1c(CO)cc(S(F)(F)(F)(F)F)cc1NC(=O)NCc1ccccc1OCc1ccncc1` [Compound of Example 2]: half-maximal inhibition (IC50) was put at 26.1 nM. For the molecule `COc1ccc(OC(F)(F)F)cc1NC(=O)NCc1ccccc1OCc1cccnc1` [Compound of Example 3], the IC50 amounted to 838 nM. Under `COc1ccc(OC(F)(F)F)cc1NC(=O)NCc1ccccc1OCc1ccncc1` [Compound of Example 4] stands 51.7 nM; under `COc1ccc(OC(F)(F)F)cc1NC(=O)NCc1ccccc1OCc1ccnc(C(N)=O)c1` [Compound of Example 5, 4-((2-((3-(2-methoxy-5-(trifluoromethoxy)phenyl)ureido)methyl)phenoxy)methyl)picolinamide], 47 nM; under `COc1ccc(C(F)(F)F)cc1NC(=O)NCc1cccc(OCc2cccnc2)c1` [Compound of Example 6], 32.5 nM. Turning to `COC(=O)c1ccc(COc2ccccc2CNC(=O)Nc2cc(OC(F)(F)F)ccc2OC)cc1` [Compound of Example 7, methyl 4-((2-((3-(2-methoxy-5-(trifluoromethoxy)phenyl)ureido)methyl)phenoxy)methyl)benzoate], it took 585 nM to reach half-maximal inhibition (IC50). In the case of `COc1ccc(OC(F)(F)F)cc1NC(=O)NCc1ccccc1OCc1ccc(C(=O)O)cc1` [Compound of Example 8, 4-((2-((3-(2-methoxy-5-(trifluoromethoxy)phenyl)ureido)methyl)phenoxy)methyl)benzoic acid], half-maximal inhibition (IC50) required 172 nM. As for `COc1ccc(OC(F)(F)F)cc1NC(=O)NCc1ccccc1OCc1cccc(C(=O)O)c1` [Compound of Example 9, 3-((2-((3-(2-methoxy-5-(trifluoromethoxy)phenyl)ureido)methyl)phenoxy)methyl)benzoic acid], the half-maximal inhibitory concentration (IC50) was 137 nM. As for `COC(=O)c1ccc(COc2ccccc2CNC(=O)Nc2cc(C(F)(F)F)cc(CO)c2OC)cc1` [Compound of Example 10, methyl 4-((2-((3-(3-(hydroxymethyl)-2-methoxy-5-(trifluoromethyl)phenyl)ureido)methyl)phenoxy)methyl)benzoate], it took 156 nM to reach half-maximal inhibition (IC50).

`COc1c(CO)cc(C(F)(F)F)cc1NC(=O)NCc1ccccc1OCc1ccc(C(=O)O)cc1` [Compound of Example 11, 4-((2-((3-(3-(hydroxymethyl)-2-methoxy-5-(trifluoromethyl)phenyl)ureido)methyl)phenoxy)methyl)benzoic acid]: inhibition was half-maximal at 150 nM (IC50). Under `COc1ccc(OC(F)(F)F)cc1NC(=O)NCc1ccccc1OCc1ccc(C(N)=O)cc1` [Compound of Example 12, 4-((2-((3-(2-methoxy-5-(trifluoromethoxy)phenyl)ureido)methyl)phenoxy)methyl)benzamide] stands 38.6 nM; under `CNC(=O)c1ccc(COc2ccccc2CNC(=O)Nc2cc(OC(F)(F)F)ccc2OC)cc1` [Compound of Example 13, 4-((2-((3-(2-methoxy-5-(trifluoromethoxy)phenyl)ureido)methyl)phenoxy)methyl)-N-methylbenzamide], 96.4 nM; under `COc1ccc(OC(F)(F)F)cc1NC(=O)NCc1ccccc1OCc1ccc(C(=O)N(C)C)cc1` [Compound of Example 14, 4-((2-((3-(2-methoxy-5-(trifluoromethoxy)phenyl)ureido)methyl)phenoxy)methyl)-N,N-dimethylbenzamide], 156 nM. In the case of `CCN(CC)CCNC(=O)c1ccc(COc2ccccc2CNC(=O)Nc2cc(OC(F)(F)F)ccc2OC)cc1` [Compound of Example 15, N-(2-(diethylamino)ethyl)-4-((2-((3-(2-methoxy-5-(trifluoromethoxy)phenyl)ureido)methyl)phenoxy)methyl)benzamide], half-maximal inhibition (IC50) was put at 308 nM. Molecule `COc1ccc(OC(F)(F)F)cc1NC(=O)NCc1ccccc1OCc1ccc(C(=O)NCCN(C)C)cc1` [Compound of Example 16, N-(2-(dimethylamino)ethyl)-4-((2-((3-(2-methoxy-5-(trifluoromethoxy)phenyl)ureido)methyl)phenoxy)methyl)benzamide] registered an IC50 of 163 nM. Turning to `CNCCNC(=O)c1ccc(COc2ccccc2CNC(=O)Nc2cc(OC(F)(F)F)ccc2OC)cc1` [Compound of Example 17, 4-((2-((3-(2-methoxy-5-(trifluoromethoxy)phenyl)ureido)methyl)phenoxy)methyl)-N-(2-(methylamino)ethyl)benzamide], half-maximal inhibition (IC50) required 185 nM. For the molecule `COc1ccc(C(F)(F)F)cc1NC(=O)NCc1ccccc1OCc1ccc(C(N)=O)cc1` [Compound of Example 18, 4-((2-((3-(2-methoxy-5-(trifluoromethyl)phenyl)ureido)methyl)phenoxy)methyl)benzamide], the IC50 worked out at 23.3 nM. In turn, `NC(=O)c1ccc(COc2ccccc2CNC(=O)Nc2cccc(C(F)(F)F)c2)cc1` [Compound of Example 19, 4-((2-((3-(3-(trifluoromethyl)phenyl)ureido)methyl)phenoxy)methyl)benzamide] came in with a concentration for half-maximal inhibition (IC50) of 37.4 nM. `COc1c(CO)cc(C(F)(F)F)cc1NC(=O)NCc1ccccc1OCc1ccc(C(N)=O)cc1` [Compound of Example 20, 4-((2-((3-(3-(hydroxymethyl)-2-methoxy-5-(trifluoromethyl)phenyl)ureido)methyl)phenoxy)methyl)benzamide] yielded a half-inhibitory concentration (IC50) of 13.5 nM.

As to `COc1ccc(C(F)(F)F)cc1NC(=O)NCc1ccccc1OCc1cccc(C(N)=O)c1` [Compound of Example 21, 3-((2-((3-(2-methoxy-5-(trifluoromethyl)phenyl)ureido)methyl)phenoxy)methyl)benzamide], the IC50 amounted to 67.4 nM. With `COc1c(CO)cc(C(F)(F)F)cc1NC(=O)NCc1ccccc1OCc1cccc(C(N)=O)c1` [Compound of Example 22] the figure was 28.5 nM; with `COc1ccc(S(F)(F)(F)(F)F)cc1NC(=O)NCc1ccccc1Oc1ccncc1` [Compound of Example 23, 1-(2-methoxy-5-(pentafluorosulfanyl)phenyl)-3-(2-(pyridin-4-yloxy)benzyl)urea hydrochloride], 78.7 nM. The molecule `COc1ccc(S(F)(F)(F)(F)F)cc1NC(=O)NCc1ccccc1Oc1ccnc(-n2ccnc2)n1` [Compound of Example 24, 1-(2-((2-(1H-imidazol-1-yl)pyrimidin-4-yl)oxy)benzyl)-3-(2-methoxy-5-(pentafluorosulfanyl)phenyl)urea] showed an IC50 of 42.2 nM. Consider `COC(=O)c1ccc(Oc2ccccc2CNC(=O)Nc2cc(OC(F)(F)F)ccc2OC)cc1` [Compound of Example 25], for which 194 nM corresponded to half-maximal inhibition (IC50). Turning to `COc1ccc(OC(F)(F)F)cc1NC(=O)NCc1ccccc1Oc1ccc(C(=O)O)cc1` [Compound of Example 26], 38.3 nM corresponded to half-maximal inhibition (IC50).

`COc1ccc(OC(F)(F)F)cc1NC(=O)NCc1ccccc1Oc1ccc(C(N)=O)cc1` [Compound of Example 27] showed an IC50 of 21 nM. For `COc1c(CO)cc(C(F)(F)F)cc1NC(=O)NCc1ccccc1Oc1ccc(C(=O)O)cc1` [Compound of Example 28], the IC50 came out at 14.5 nM. Under `COc1c(CO)cc(C(F)(F)F)cc1NC(=O)NCc1ccccc1Oc1ccc(C(N)=O)cc1` [Compound of Example 29] stands 5.98 nM; under `COc1ccc(C(F)(F)F)cc1NC(=O)NCc1ccccc1Oc1ccc(C(=O)O)cc1` [Compound of Example 30], 12.4 nM.
